Experimental findings from patent US7575908B1, “Immobilization method for producing active α1-acid glycoprotein” (Board of Regents of the University of Nebraska, priority 2005, dated 2009) are described below.

Type in all cases: binding
Series [1] can be described thus: Effects of periodate oxidation on activity of immobilized α1-acid glycoprotein (chromatographic studies). Particulars: 37° C., pH 7.4 PBS. As to the method:
FIG. 2A illustrates an exemplary method for preparing oxidized α1-acid glycoprotein. The conditions chosen for this reaction vary according to the final degree of oxidation desired. […] This mixture was allowed to react for 10 to 15 minutes at room temperature in the dark and quenched by adding 0.25 mL ethylene glycol per milliliter of sample. After this new mixture had reacted for 2 minutes, it was put into a dialysis bag at 4° C. for 2 hours against 2 liters pH 7.0, 20 mM acetate buffer containing 0.15 M sodium chloride. This was followed by three additional two-hour dialysis cycles against 2 liter portions of pH 7.0, 0.10 M potassium phosphate buffer.
Oxidized α1-acid glycoprotein was immobilized to hydrazide-activated silica by a procedure illustrated in FIG. 2C. In exemplary studies, a 5 mL portion of pH 7.0, 0.10 M phosphate buffer containing 1.5 mg/mL oxidized α1-acid glycoprotein was mixed with 0.03 grams of hydrazide-activated silica. This mixture was sonicated under aspirator vacuum for 10 minutes to remove any air bubbles from the suspension. It was then placed onto a shaker and allowed to react at 4° C. for up to seven days, with more than two days being optimum. The reaction was stopped by centrifuging the reaction mixture and removing the supernatant. The support was next washed several times with pH 7.0, 0.10 M phosphate buffer, followed by several additional washings with deionized water. Any hydrazide groups remaining on this support were removed by adding a 200-fold excess of glyceraldehyde versus the support's original hydrazide content. This mixture was shaken at 4° C. for 6 hours. The support was then washed several times with pH 7.0, 0.10 M phosphate buffer. The amount of immobilized α1-acid glycoprotein was determined by comparing the final and initial concentrations of α1-acid glycoprotein in the reaction slurry, using absorbance measurements at 280 nm.
(§1) The α1-acid glycoprotein and hydrazide-activated supports were downward slurry-packed at 28 MPa (4000 psi) into 50×4.1 mm I.D. stainless steel columns. These columns were enclosed in water jackets for temperature control. All studies, except those examining the temperature dependence of propranolol—α1-acid glycoprotein binding, were performed at 37° C. The mobile phases and packing solutions were prepared using pH 7.4 phosphate buffered saline (PBS, composition: 0.013 M potassium dihydrogen phosphate, 0.053 M disodium hydrogen phosphate and 0.133 M sodium chloride). Prior to use, all mobile phases were filtered through a 0.45 μm cellulose acetate filter and degassed under vacuum for 10 min. Elution of R- and S-propranolol was detected by monitoring the absorbance at 225 nm. Zonal elution studies were performed on the α1-acid glycoprotein column by applying pH 7.4 phosphate buffer solution containing up to 20 μM of the desired competing agent while making 20 μL injections of R-propranolol or S-propranolol onto the column. At each concentration of competing agent, three replicate injections of the desired analyte were made. The propranolol samples were prepared by dissolving 5.0 μM R- or S-propranolol in the appropriate mobile phase. All mobile phases containing propranolol were prepared using the individual enantiomers or propranolol. The flow rate ranged from 0.8 to 1.5 mL/min, with no significant changes in the retention factors being noted under this range of conditions.
The retention times for propranolol were calculated using a B/A0.5 method. The column void volume was determined by making injections of sodium nitrate onto a column containing only hydrazide-activated silica while monitoring the absorbance at 205 nm. All elution times were corrected for the extra-column volume of the chromatographic system, as determined by making injections of R-propranolol or S-propranolol when no column was present. […]

For series [2], the system named is α1-acid glycoprotein. Nature of the series: Self-competition zonal elution of R- and S-propranolol on immobilized α1-acid glycoprotein HPLC column. As to conditions: pH 7.4 phosphate buffered saline, immobilized AGP column. The method, then: as §1
(§2) The retention times for propranolol were calculated using a B/A0.5 method. The column void volume was determined by making injections of sodium nitrate onto a column containing only hydrazide-activated silica while monitoring the absorbance at 205 nm. All elution times were corrected for the extra-column volume of the chromatographic system, as determined by making injections of R-propranolol or S-propranolol when no column was present. A correction for the small amount of non-specific binding between propranolol and the hydrazide support was made by measuring the retention factors for this drug on a column equivalent in size to the α1-acid glycoprotein column, but containing only hydrazide-activated silica. This was measured at each propranolol concentration in the mobile phase and accounted for 3-15% of the retention factors noted for propranolol on the α1-acid glycoprotein column. […] The column was stored in pH 7.4 PBS buffer at 4° C. when not in use.
All of the results presented in Table 2 were generated by performing self-competition zonal elution studies at temperatures ranging from 5° C. to 37° C. in pH 7.4 phosphate buffered saline. The numbers in parentheses represent a range of ± one standard deviation.

In series [3] the test system is α1-acid glycoprotein. Nature of the series: Retention of R- and S-propranolol on α1-acid glycoprotein column as a function of pH. As to conditions: for decrease of retention factor: pH decreased from 7.4 to 4.8. The method, then: as §1, §2
The effect of other separation conditions such as pH were also evaluated. For instance, as the pH decreased from 7.4 to 4.8, the retention factor for R-propranolol decreased from 132 to 17.8 (87%), while the retention factor for S-propranolol decreased from 167 to 17.8 (89%).

Where [4] appears, read: AGP oxidized with 10 mM periodate.
The mark [5] stands for this setting: AGP oxidized with 20 mM periodate.
[6] abbreviates: AGP oxidized with 50 mM periodate.

For the molecule α1-acid glycoprotein [AGP], the Binding capacity is 6.8 (±0.2) mg/g silica in series [1] (setting [4]), 6.3 (±0.3) mg/g silica in series [1] (setting [5]) and 6.8 (±0.3) mg/g silica in series [1] (setting [6]). The Specific activity in series [1] (setting [4]) is 0.67 (±0.02) mg/mg AGP; in series [1] (setting [5]), 0.40 (±0.02) mg/mg AGP; in series [1] (setting [6]), 0.47 (±0.03) mg/mg AGP.

With `CC(C)NCC(O)COc1cccc2ccccc12` (centres unmarked) [S-Propranolol], the “Association equilibrium constant, Ka” value is 11 (±3) × 10^6 M^−1 with α1-acid glycoprotein [2] (5° C.), 9 (±2) × 10^6 M^−1 in the series with α1-acid glycoprotein [2] (15° C.), 5.2 (±1.7) × 10^6 M^−1 with α1-acid glycoprotein [2] (25° C.) and 4.2 (±0.3) × 10^6 M^−1 in the series with α1-acid glycoprotein [2] (37° C.). Besides, the retention factor in the series with α1-acid glycoprotein [3] (pH 4.8, AGP column) came to 17.8; in the series with α1-acid glycoprotein [3] (pH 7.4, AGP column), 167. The “decrease of retention factor” value with α1-acid glycoprotein [3] is listed as 89%.

For the molecule `CC(C)NC[C@@H](O)COc1cccc2ccccc12` [R-Propranolol], the “Association equilibrium constant, Ka” value in the series on α1-acid glycoprotein [2] (5° C.) is reported as 8 (±2) × 10^6 M^−1; in the series on α1-acid glycoprotein [2] (15° C.) it was 7 (±1) × 10^6 M^−1; in the series with α1-acid glycoprotein [2] (25° C.), 3.9 (±0.2) × 10^6 M^−1; in the series with α1-acid glycoprotein [2] (37° C.) it was 2.7 (±0.2) × 10^6 M^−1. For the same molecule, the retention factor in the series with α1-acid glycoprotein [3] (pH 4.8, AGP column) stood at 17.8; with α1-acid glycoprotein [3] (pH 7.4, AGP column), 132. Also, the “decrease of retention factor” value with α1-acid glycoprotein [3] came to 87%.
